Data set [1] deals with Wistar male rat. The data set is described as follows: Test 8: forced swimming test. The format is in vivo. The following applies: oral, once a day, 5 mg/kg administration. On the procedure: Test 8: Forced Swimming Test
The antidepressive effect of the present compound was evaluated in a manner mentioned below.
The test was carried out with 8-week-old Wistar male rat in 4-day test schedule. On the 1st day of the test, the rat was put into a transparent plastic bath filled with 5.8 L of tap water at 25° C., and made to swim for 15 minutes as swimming training. After the swimming training, the rat was rapidly wiped to remove the attached waterdrop, and returned to the home cage. 15 minutes after the training, the present compound or a positive control compound was orally administered with methylcellulose suspension to the rat. On the next day of the training and the day after next, the present compound or the positive control compound was orally administered with methylcellulose suspension to the rat once a day. On the 4th day, the swimming test was carried out. On the day of the swimming test, the present compound or the positive control compound was orally administered with methylcellulose suspension to the rat one hour before the start of the test. The swimming test was carried out with the rat in the above-mentioned water bath for 5 minutes. The swimming movement of the individual was recorded with a video from the side of the water bath, and the immobility time was measured with a stop-watch. […]

The test system of data set [2] is SD male rat. Briefly: Test 6: contextual fear conditioning test. The format is in vivo. As to conditions: 15 mg/kg administration. On the procedure:
Test 6: Contextual Fear Conditioning Test
The antianxiety of the present compounds was evaluated in a manner mentioned below.
The evaluation of an 8-week-old SD male rat with a fear conditioning test system (O'HARA & CO., LTD.) was carried out in 2-day test schedule. On the 1st day of the test, by giving 0.5 mA of electric shock to the rat as unconditioned stimulus 5 times for 6 minutes, the rat was made to learn the relationship the context (the illuminance in the cage: 200 lx) which was given as conditioned stimulus, and phobic stimulus. On the 2nd day, the present compound was subcutaneously administered with saline solution to the rat, or orally administered with methylcellulose suspension to the rat. 0.5 or 1 hour after the administration, the rat was made to softly enter the cage under the condition in which the unconditioned stimulus was not given in the context. The time of cataleptic freezing reaction that the rat took for 5-minute freely-moving period and its ratio were measured. The ratios of cataleptic freezing reaction between the solvent-administration group and the present compound-administration group were compared to be statistically processed.

Data set [3] deals with human D4 receptor (Homo sapiens (Human), UniProt P21917). Briefly: Test 1: agonistic activity for human D4 receptor (aequorin/Gα16 luminescence in CHO-K1 cell). The format is cell-based.
The target of data set [4] is T1, human 5-HT1A receptor (Homo sapiens (Human), UniProt P08908). The data set is described as follows: Test 1: agonistic activity for human 5-HT1A receptor (aequorin/Gα16 luminescence in CHO-K1 cell). The format is cell-based. The essentials: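 Aequorin and Gα16 transiently co-expressed with each receptor in CHO-K1 cells, cultured 24 h at 37 °C. Compounds added from DMSO solution; agonism read as change in luminescence.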

Data set [5] can be described thus: Test 3-2: metabolic stability test of human liver microsome (0.5 or 1.0 mg/mL). The format is in vitro ADME. As to conditions: test compound 0.1 μmol/L, 37° C., 30 minutes. As to the method:
Test 3-2: Metabolic Stability Test of Human Liver Microsome
In order to evaluate the metabolic stability of human liver microsomes more precisely, the stability of the present compounds for human liver microsome metabolism was evaluated with a suitable concentration of human liver microsome, as mentioned below. The used human liver microsome was obtained from Xenontech. Human liver microsome, NADPH, and each test compound were mixed in 25 mmol/L phosphate buffer solution (pH 7.4) to adjust each concentration as shown below, and the mixture was incubated at 37° C. for 30 minutes. • human liver microsome: 0.5 or 1.0 mg/mL • NAPDH: 3.2 mmol/L • test compound: 0.1 μmol/L
The residual ratio of the test compound in each sample after the incubation for 30 minutes was measured with a LC-MS, and the metabolic stability of human liver microsome was calculated about each test compound with the following formula. Metabolic stability of human liver microsome (mL/min/mg protein)=−LN (residual ratio)/“reaction time”/“concentration of human liver microsome”

Data set [6] concerns the target human D2 receptor (Homo sapiens (Human), UniProt P14416). The data set is described as follows: Test 2: binding activity to human D2 receptor ([3H] spiperone, CHO cell membrane). As to conditions: [3H] spiperone; read-out: D2 binding affinity (Ki value).
Data set [7] addresses T1, human 5-HT1A receptor. Briefly: Test 2: binding activity to human 5-HT1A receptor ([3H] 8-OH-DPAT, CHO cell membrane). The following applies: [3H] 8-OH-DPAT; read-out: 5-HT1A binding affinity (Ki value).
Where [8] appears, read: CHO-K1, 100% = 10 μmol/L endogenous ligand.
Where [9] appears, read: CHO-K1 cell, aequorin luminescence.

Where only a bound is given, the exact number is not on record here.

T1 sequence (P08908 whole entry): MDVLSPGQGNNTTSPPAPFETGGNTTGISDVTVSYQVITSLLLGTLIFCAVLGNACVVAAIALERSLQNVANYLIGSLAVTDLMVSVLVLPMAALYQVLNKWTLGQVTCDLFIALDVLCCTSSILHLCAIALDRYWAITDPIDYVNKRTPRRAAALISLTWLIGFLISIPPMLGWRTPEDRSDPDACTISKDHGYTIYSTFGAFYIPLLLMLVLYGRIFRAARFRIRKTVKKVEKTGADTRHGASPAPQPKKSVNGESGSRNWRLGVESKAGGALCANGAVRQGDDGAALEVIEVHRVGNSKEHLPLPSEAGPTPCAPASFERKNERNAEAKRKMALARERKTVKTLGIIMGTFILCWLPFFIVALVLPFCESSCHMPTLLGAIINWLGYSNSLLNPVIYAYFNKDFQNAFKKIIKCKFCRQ
Sequence of human D4 receptor (P21917 whole entry): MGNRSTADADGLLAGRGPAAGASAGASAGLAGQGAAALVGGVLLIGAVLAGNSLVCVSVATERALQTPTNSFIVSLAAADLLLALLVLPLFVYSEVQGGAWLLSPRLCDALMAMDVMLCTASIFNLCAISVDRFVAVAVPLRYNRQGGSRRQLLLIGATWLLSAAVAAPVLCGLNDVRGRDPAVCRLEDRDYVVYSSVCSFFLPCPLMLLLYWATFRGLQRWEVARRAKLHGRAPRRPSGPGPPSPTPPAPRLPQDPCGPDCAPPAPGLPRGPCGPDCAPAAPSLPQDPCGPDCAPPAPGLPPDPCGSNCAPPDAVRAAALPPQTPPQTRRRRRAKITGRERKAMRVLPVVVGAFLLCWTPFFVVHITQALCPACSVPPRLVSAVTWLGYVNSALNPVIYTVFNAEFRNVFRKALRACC
Sequence of human D2 receptor (P14416 whole entry): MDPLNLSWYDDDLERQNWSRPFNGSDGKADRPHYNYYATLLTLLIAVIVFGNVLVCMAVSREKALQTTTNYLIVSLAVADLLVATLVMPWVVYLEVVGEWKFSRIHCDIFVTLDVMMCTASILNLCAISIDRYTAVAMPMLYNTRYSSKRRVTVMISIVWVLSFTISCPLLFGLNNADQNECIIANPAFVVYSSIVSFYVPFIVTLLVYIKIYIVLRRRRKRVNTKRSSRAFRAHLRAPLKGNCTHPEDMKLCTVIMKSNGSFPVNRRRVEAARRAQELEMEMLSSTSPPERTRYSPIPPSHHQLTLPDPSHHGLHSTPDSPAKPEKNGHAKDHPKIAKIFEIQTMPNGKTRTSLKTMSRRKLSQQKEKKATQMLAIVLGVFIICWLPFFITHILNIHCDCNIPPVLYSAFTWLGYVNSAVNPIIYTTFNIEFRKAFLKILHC

Broadly, the Emax is the maximal effect, on the per cent scale that the assay sets. One may read the EC50 as the concentration at which the effect is half-maximal. Lower therefore signals a more potent agent. By Ki is commonly meant a measure of affinity in units of concentration, obtained from inhibition or displacement. On to `O=C(NCCN1CCC(c2cccc(C(F)(F)F)n2)CC1)C1CCC(F)(F)CC1` [Example 1, 4,4-Difluoro-N-(2-{4-[6-(trifluoromethyl)pyridin-2-yl]piperidin-1-yl}ethyl)cyclohexane-carboxamide], for which, in data set [1], the “decrease of the immobility time for the solvent-administration group” value was 74.7%. Besides, the “decrease of the cataleptic freezing reaction for the solvent-administration group” value in data set [2] amounted to 82.5%. Further, the figures for the Emax in data set [3] (setting [8]) and in data set [4] (setting [8]) were 67% and 96%, respectively. The figures for the EC50 in data set [3] (setting [9]) and in data set [4] (setting [9]) were 11.9 nM and below 10 nM, respectively. Also, the “Metabolic stability of human liver microsome” value in data set [5] was determined as 0.031 mL/min/mg protein. Besides, the Ki in data set [6] worked out at 1140 nM; in data set [7], 0.4 nM.

Values taken from patent US10800755B2, “2,6-disubstituted pyridine derivative” (Sumitomo Dainippon Pharma Co., Ltd., priority 2017, dated 2020).
